Assay results taken from patent US12185721B2, “Glycoside compound of fatty acids, composition comprising it, process for its obtention and methods to apply it on plants or fruits or both at the same time” (Consejo Nacional de Investigaciones Científicas y Técnicas …, priority 2020, dated 2025).
No end group written: not given here.

Columns and labels:
Colletotrichum acutatum = experiment: Test for resistance to disease in strawberry plants (anthracnose); assay type: in vivo; details: salicylic acid 5 mM; acibenzolar-s-methyl 1 mM
Description: Healthy plants of the cv“Pájaro” (“Bird”) 3 months old of Fragaria×ananassa from in vitro tissue cultures, with the FLs compounds at a preferred concentration of 0.03 μg/ml were sprayed and 5 days later they were exposed to the pathogen fungus Colletotrichum acutatum, causative agent of the anthracnose disease (European Journal of Plant Pathology, (2007) 117, 109-122). The infected plants were incubated in a growth chamber under optimal conditions for the proliferation of the fungi and the development of the disease (28° C., 80% of relative humidity and a photoperiod of 16 hours). Seven days after incubation, the gravity symptoms of petiole disease were assessed according to the scale proposed by Delp and Milholland (Plant Disease, (1980), 64(12), 1071-1073), that assigns values of gravity comprised between 1 (healthy plant) and 5 (very grave or dead plant). As positive controls of the induction of a defense against pathogens, the treatment with FLs was replaced by salicylic acid 5 mM or 1 mM of […] or BTH, a salicylic acid analogous that induces a […] defense in plants. It is worth noting that the FLs, BTH and salicylic acid concentrations used were subinhibitory for C. acutatum growth. As a negative control of defense induction, the plants were sprayed with sterile distilled water.

[1] = tested on: Colletotrichum acutatum M11; details: described values; cited from earlier work
Proteus sp. = details: described values; cited from earlier work
Escherichia coli MC 4100 = details: described values; cited from earlier work
Pseudomona aeruginosa = details: described values; cited from earlier work
Citrobacter sp. = details: described values; cited from earlier work
Listeria monocytogenes = details: described values; cited from earlier work
Bacillus subtilis = details: described values; cited from earlier work
Micrococcus sp. = details: described values; cited from earlier work
Rhodococcus fascians = details: values described for other antimicrobial compounds; cited from earlier work
[2] = tested on: Colletotrichum fragariae F7; details: described values; cited from earlier work
[3] = tested on: Colletotrichum gloeosporioides L9; details: described values; cited from earlier work
Salmonella Newport = details: described values; cited from earlier work
[4] = tested on: C. michiganensis cytoplasmic membrane; experiment: Test for depolarization of membranes, diSC3(5) fluorescence; assay type: cell-based; details: FLs 60 μg/ml; valinomycin 1 μM; C. michiganensis cells
Description: To study the possible mechanism underlying the FLs antimicrobial activity, the effect of the application of FLs upon C. michiganensis cytoplasmic membrane was assessed (FIG. 4), by using the cyanine stain method with 3,3′-Dipropylthiadicarbocianine iodide (diSC3 (5)) (Biochemistry (1999), 38(22), 7235-7242.).
The depolarization of the membrane in the bacterium C. michiganensis as controlled through changes in the intensity of the fluorescence emission of the diSC3 (5) membrane-sensitive stain (Biochemistry, (1999), 38(22), 7235-7242.). C. michiganensis was grown in LB liquid medium and incubated in a stirrer (120 rpm) at 26° C., up to the growth in a median logarithmic phase (OD600=0.5). The harvested cells were centrifuged and washed once (glucose 5 mM and HEPES 20 mM pH 7.3) and were suspended again up to a final OD600 final=0.05 in the same buffer. […]
After the addition of 0.4 μM de diSC3 (5), the sample cells that contained bacterial cells were incubated at 26° C. until a stable reduction of the fluorescence (about 5 minutes) was reached, what indicated the incorporation of the stain into the bacterial membrane. Afterwards, the FLs, valinomycin or water were added and the stain fluorescence increase at 622 nm (excitation wavelength) and 670 nm (emission wavelength) with a RF-5301 PC spectrofluorometer (Shimadzu, Kyoto, Japan) was recorded. […]

P. digitatum (blue mold) = experiment: Test for resistance to diseases in strawberry fruits, controlled conditions of growth; assay type: in vivo, Penicillum digitatum; details: FLs 10 μg/ml, HeT 0.8 mg/ml, sodium hypochlorite 4%
Description: (§1) Fruits inoculated under controlled conditions of growth: Healthy and ripe strawberries collected in the field were disinfected by means of washing in ethanol at 70%, sodium hypochlorite at 10% and sterile water. The disinfected fruits were immersed in an FLs solution (10 μg/ml) and incubated at 25° C., 90% of humidity and 16 hours of photoperiod. After 2 days of incubation, the surface of the treated fruits was inoculated with a fungus spore suspension of 20 μl ([…]) of B. cinerea or P. digitatum, and were incubated in the same growth conditions above described. Seven days after the pathogen inoculation, the incidence (% of infected fruits) and the severity (degree of affected fruit surface) of the disease were assessed. The fruits sprayed with a solution of sodium hypochlorite at 4% were used as a protection positive control and the sterile fruits treated with water, as negative controls. Besides, a treatment with the plant defense inducer HeT (0.8 mg/ml) was included. The FL and HeT concentrations were subinhibitory for fungal growth.

B. cinerea (gray mold) = experiment: as above; assay type: in vivo, Botrytis cinerea; details: FLs 10 μg/ml, HeT 0.8 mg/ml, sodium hypochlorite 4%
Description: as §1

P. digitatum = experiment: Protection against postharvest diseases in fruits of lemon tree, preventive effect; assay type: in vivo, Penicillum digitatum; details: Imazalil 500 ppm
Penicillum digitatum = details: described values; cited from earlier work
Botritys cinerea = details: described values; cited from earlier work
[5] = tested on: Staphylococcus epidermidis; details: described values; cited from earlier work
[6] = tested on: Enterococcus faecium CRL35; details: described values; cited from earlier work
Staphylococcus aureus = details: described values; cited from earlier work
Xanthomonas fragariae = details: described values; cited from earlier work

O=C(O)c1ccccc1O [salicylic acid]
protection against anthracnose compared with FLs (Colletotrichum acutatum): comparable

O=C1C2CC=CCC2C(=O)N1SC(Cl)(Cl)Cl (stereo not shown) [Captan]
CE50 (μg/ml) for commercial antimicrobial [1]: Captan 1 μg/ml

C[C@@H](O)[C@H]1C(=O)N2C(C(=O)O)=C(S[C@@H]3CN[C@H](C(=O)N(C)C)C3)[C@H](C)[C@H]12 [Meropenem]
CE50 (μg/ml) for commercial antimicrobial (Proteus sp.): Meropenem 0.1 μg/ml
CE50 (μg/ml) for commercial antimicrobial (Escherichia coli MC 4100): Meropenem 0.01 μg/ml
CE50 (μg/ml) for commercial antimicrobial (Pseudomona aeruginosa): Meropenem 0.2 μg/ml
CE50 (μg/ml) for commercial antimicrobial (Citrobacter sp.): Meropenem 0.02 μg/ml

CC[C@H]1OC(=O)[C@H](C)[C@@H](O[C@H]2C[C@@](C)(OC)[C@@H](O)[C@H](C)O2)[C@H](C)[C@@H](O[C@@H]2O[C@H](C)C[C@H](N(C)C)[C@H]2O)[C@](C)(O)C[C@@H](C)CN(C)[C@H](C)[C@@H](O)[C@]1(C)O [Azythromicin]
CE50 (μg/ml) for commercial antimicrobial (Listeria monocytogenes): Azythromicin 0.5 μg/ml
CE50 (μg/ml) for commercial antimicrobial (Bacillus subtilis): Azythromicin 2 μg/ml
CE50 (μg/ml) for commercial antimicrobial (Micrococcus sp.): Azythromicin 0.12 μg/ml
CE50 (μg/ml) for commercial antimicrobial (Rhodococcus fascians): Azythromicin 0.5 μg/ml

CCCCNC(=O)n1c(NC(=O)OC)nc2ccccc21 [Benomyl]
CE50 (μg/ml) for commercial antimicrobial [2]: Benomyl 0.29 μg/ml
CE50 (μg/ml) for commercial antimicrobial [3]: Benomyl 0.29 μg/ml

NCC[C@H](O)C(=O)N[C@@H]1C[C@H](N)[C@@H](O[C@H]2O[C@H](CN)[C@@H](O)[C@H](O)[C@H]2O)[C@H](O)[C@H]1O[C@H]1O[C@H](CO)[C@@H](O)[C@H](N)[C@H]1O [Amikasin]
CE50 (μg/ml) for commercial antimicrobial (Salmonella Newport): Amikasin 2 μg/ml

CC[C@H]1OC(=O)[C@H](C)[C@@H](O[C@H]2C[C@@](C)(OC)[C@@H](O)[C@H](C)O2)[C@H](C)[C@@H](O[C@@H]2O[C@H](C)C[C@H](N(C)C)[C@H]2O)[C@](C)(OC)C[C@@H](C)C(=O)[C@H](C)[C@@H](O)[C@]1(C)O [Clarythromicin]
CE50 (μg/ml) for commercial antimicrobial (Listeria monocytogenes): Clarythromicin 0.12 μg/ml
CE50 (μg/ml) for commercial antimicrobial (Bacillus subtilis): Clarythromicin 0.12 μg/ml
CE50 (μg/ml) for commercial antimicrobial (Micrococcus sp.): Clarythromicin 0.06 μg/ml
CE50 (μg/ml) for commercial antimicrobial (Rhodococcus fascians): Clarythromicin 0.06 μg/ml

CC(C)[C@@H]1NC(=O)[C@H](C)OC(=O)[C@@H](C(C)C)NC(=O)[C@@H](C(C)C)OC(=O)[C@H](C(C)C)NC(=O)[C@H](C)OC(=O)[C@@H](C(C)C)NC(=O)[C@@H](C(C)C)OC(=O)[C@H](C(C)C)NC(=O)[C@H](C)OC(=O)[C@@H](C(C)C)NC(=O)[C@@H](C(C)C)OC1=O [valinomycin, reference compound]
increase of diSC3 (5) fluorescence (membrane depolarization) [4]: induced a fluorescence increase similar to the one seen with the FL compound

OCl [sodium hypochlorite, reference compound]
reduction of blue mold incidence (P. digitatum (blue mold)): 50%
reduction of blue mold severity (P. digitatum (blue mold)): 40%
reduction of gray mold incidence (B. cinerea (gray mold)): 70%
reduction of gray mold severity (B. cinerea (gray mold)): 45%

CC[C@H]1OC(=O)[C@H](C)[C@@H](O[C@H]2C[C@@](C)(OC)[C@@H](O)[C@H](C)O2)[C@H](C)[C@@H](O[C@@H]2O[C@H](C)C[C@H](N(C)C)[C@H]2O)[C@](C)(O)C[C@@H](C)C(=O)[C@H](C)[C@@H](O)[C@]1(C)O [Erythromycin]
CE50 (μg/ml) for commercial antimicrobial (Listeria monocytogenes): Erythromycin 0.25 μg/ml
CE50 (μg/ml) for commercial antimicrobial (Bacillus subtilis): Erythromycin 0.25 μg/ml
CE50 (μg/ml) for commercial antimicrobial (Micrococcus sp.): Erythromycin 0.12 μg/ml
CE50 (μg/ml) for commercial antimicrobial (Rhodococcus fascians): Erythromycin 0.25 μg/ml

C=CCOC(Cn1ccnc1)c1ccc(Cl)cc1Cl (stereo not shown) [Imazalil]
protection of lemons compared with FLs 0.1 mg/ml (P. digitatum): comparable
CE50 (μg/ml) for commercial antimicrobial (Penicillum digitatum): Imazalil 6 μg/ml
CE50 (μg/ml) for commercial antimicrobial (Botritys cinerea): Imazalil 8 μg/ml

CN[C@H](CC(C)C)C(=O)N[C@H]1C(=O)N[C@@H](CC(N)=O)C(=O)N[C@H]2C(=O)N[C@H]3C(=O)N[C@H](C(=O)N[C@H](C(=O)O)c4cc(O)cc(O)c4-c4cc3ccc4O)[C@H](O)c3ccc(c(Cl)c3)Oc3cc2cc(c3O[C@@H]2O[C@H](CO)[C@@H](O)[C@H](O)[C@H]2O[C@H]2C[C@](C)(N)[C@H](O)[C@H](C)O2)Oc2ccc(cc2Cl)[C@H]1O [Vancomycin]
CE50 (μg/ml) for commercial antimicrobial [5]: Vancomycin 1.56 μg/ml
CE50 (μg/ml) for commercial antimicrobial [6]: Vancomycin 0.78 μg/ml
CE50 (μg/ml) for commercial antimicrobial (Staphylococcus aureus): Vancomycin 0.78 μg/ml

Cecropin B (KWKVFKKIEKMGRNIRNGIVKAGPAIAVLGEAKAL; ends and bridges not checked; UniProt P01508 27-61, looked up) [commercial antimicrobial]
CE50 (μg/ml) for commercial antimicrobial (Xanthomonas fragariae): Cecropin B 0.04 μg/ml

CSC(=O)c1cccc2nnsc12 [acibenzolar-s-methyl]
protection against anthracnose compared with FLs (Colletotrichum acutatum): comparable
